Data on nine molecules can be found in US20210003580A1, “METHODS OF DETECTION AND TREATMENT OF HYPER TRANSCRIPTION DISEASES” (BOARD OF REGENTS OF THE UNIVERSITY OF TEXAS SYSTEM, priority 2018, published 2021).

For experiment [1], the system named is U2OS cells with EWSR1 knockdown. In words: Cell viability, EWSR1-depleted U2OS cells. It is filed as cell-based, human. Conditions: U2OS siEWSR1 relative to U2OS siCtrl; 72 hours. The protocol: (§1) All transfections were carried out using Lipofectamine RNAiMax, Lipofectamine 3000 (Invitrogen) following manufacturer's instructions. For RNASEH1 transfections, 3×10^6 TC32 cells were transfected with 13 μg of plasmid DNA using Amaxa nucleofection (program X-001). Gene knockdowns were performed by reverse transfection whereas plasmid transfections were performed 24 hours after seeding. The siRNAs used in this study include: BRCA1 and EWSR1 (Life Technologies), EWSR1, BRCA1, FLI1, FUS, TAF15, 53BP1, FANCA, FANCD2 and FANCI (Santa Cruz). For some experiments, lentiviral transduction of TC32 with shCtrl (clone RHZ4743, Life Technologies) or shFLI1 (clone V2THS227524 or V3THS414176, Life Technologies) was performed. EWS-FLI1, EWS-FLI1 R2L2, EWS-ERG, EWSR1 (full length) and shEWSR1 in pMSCV vector were obtained from Dr. Stephen Lessnick. EWSR1 N terminal domain in pLX304 vector was purchased from DNASU. GFP-RNASEH1 and FLAG-RNASEH1 plasmids were a kind gift from Dr. Robert Crouch (Eunice Kennedy Shriver National Institute of Child Health and Human Development). HA-BRCA1 was obtained from Dr. Yuzuru Shiio (UTH-SA). ISceI in pCAGGS vector was a kind gift from Dr. Maria Jasin (Memorial Sloan Kettering Cancer Center) and Dr. Jeremy Stark (City of Hope Cancer Center). All siRNA and plasmid transfections were accompanied with control siRNA or empty vector respectively.
(§2) Cell viability. Cells were seeded at 30% confluence in 96 or 384 well plates with or without reverse transfection with siRNA. For plasmid expression, cells were transfected in 60 mm dishes first and then split into 96 or 384 well plates. The following day, the cells were treated to different drugs/inhibitors and cell viability was evaluated after 48 to 72 hours using Celltiter-Glo (Promega). Each condition was tested in triplicate. […] Drug screening data from an independently published study was obtained from http://www.cancerrxgene.org/.

In another experiment the test system is EwS cell lines. In words: Cell viability (Celltiter-Glo) after drug exposure, EwS cell lines vs controls. The experiment is classed as cell-based, human. Conditions: cell viability measured after 72 hours exposure, compared to controls IMR90 / U2OS. As to the method:
Cell culture and transfections. Ewing sarcoma cell lines (TC32, CHLA10 and CHLA258) were obtained from Children's Oncology Group and EWS502 was obtained from Dr. Lessnick. Of note, TC32 is highly chemosensitive and CHLA10 was derived from a post-treatment recurrent chemoresistant tumor (Table 1). As controls, IMR90 (primary human neonatal fibroblast) and U2OS (pediatric Osteosarcoma) cell lines were obtained from ATCC. IMR90 and U2OS were cultured in DMEM (Corning), TC32, EWS502, RDES in […] (Corning), SKES1 in McCoys (Corning) and CHLA10, CHLA258 in IMDM (HyClone); all cultured media were supplemented with 10% FBS (Atlanta Biologicals) and 1% antibiotic/antimycotic solution (Corning). Cells were maintained at 37° C. in a humidified atmosphere with 5% CO2 and tested for mycoplasma contamination.
as §2

Experiment [2] concerns U2OS cells transfected with EWS-FLI1. In words: Cell viability, U2OS cells transfected with EWS-FLI1 vs empty vector. It is filed as cell-based, human. Conditions: compared to empty vector (EV) transfected cells. As to the method:
as §1, with “ISceI in pCAGGS vector was a kind gift from Dr. Maria Jasin (Memorial Sloan Kettering Cancer Center) and Dr. Jeremy Stark (City of Hope Cancer Center). All siRNA and plasmid transfections were accompanied with control siRNA or empty vector respectively.” left out
Cell viability. […] The following day, the cells were treated to different drugs/inhibitors and cell viability was evaluated after 48 to 72 hours using Celltiter-Glo (Promega). […]

The test system of a further experiment is TC32 cells. Kind of experiment: Transcription recovery assay (EU incorporation), TC32. It is filed as cell-based, human. Conditions: exposed for 2 or 16 hours, 30 min EU labeling. As to the method: (§3) Transcription Recovery Assay. […] Post-incubation, cells were fixed, permeabilized and subjected to Click-iT RNA reaction (Click-iT RNA Alexa Flour […] Imaging kit, ThermoFisher Scientific) according to manufacturer's instructions. Washed coverslips were mounted onto glass slides using ProLong Antifade Mounting Solution with DAPI (ThermoFisher Scientific) and imaged using a Zeiss microscope at 63×. A minimum of 100 cells were analyzed for each condition. Image analysis was performed using ImageJ.

For another experiment, the system named is IMR90 cells. In words: Transcription recovery assay (EU incorporation), IMR90. The experiment is classed as cell-based, human. Conditions: exposed for 2 or 16 hours, 30 min EU labeling. The protocol: as §3
The next experiment has as its target T1, CDK9/cyclin T1 (Homo sapiens, UniProt P50750).
T1 construct: purchased ThermoFisher Scientific PV4131
In words: In vitro RNAPII phosphorylation assay (Adapta kinase assay), CDK9. It is filed as biochemical. Conditions: 1 μM recombinant protein; substrates CDKtide or RNAPII CTD fragment; relative to vehicle. The protocol: In vitro RNAPII phosphorylation assay. The following purified recombinant proteins were purchased: RNAPII CTD fragment (POLR2A-1149H, Creative BioMart), EWSR1 (TP303709, Origene), FUS (TP301808, Origene), CDK9/cyclin T1 (PV4131, ThermoFisher Scientific) and CDK7/cyclin H/MNAT1 (ab64303, Abcam). The in vitro kinase assay was performed using the Adapta kinase assay (PV5099, ThermoFisher Scientific) according to manufacturer's instructions. The template used for kinase activity was either 50 μM CDK7/9tide provided in the kit (PV5090, ThermoFisher Scientific), or 12 ng RNAPII CTD fragment. 1 μM EWSR1 or FUS was added to the substrate and 10 μM ATP kinase buffer and pre-incubated for 15 min. 1.77 μg/ml CDK9/cyclin T1 or 5.6 μg/ml CDK7/cyclin H/MNAT1 were then added and the kinase reaction was allowed to proceed for a further 45 minutes. 10 μM ADP and 10 μM ATP served positive and negative controls. Finally, Eu-labeled antibody and Alexa Fluor-647-labeled tracer added and the level of ATP consumption was measured 30 minutes later using BMG Labtech Pherastar microplate reader. Each condition was tested in quadruplicate and the overall experiment was repeated at least 3 times for independent validation.

T1 sequence (P50750 whole entry): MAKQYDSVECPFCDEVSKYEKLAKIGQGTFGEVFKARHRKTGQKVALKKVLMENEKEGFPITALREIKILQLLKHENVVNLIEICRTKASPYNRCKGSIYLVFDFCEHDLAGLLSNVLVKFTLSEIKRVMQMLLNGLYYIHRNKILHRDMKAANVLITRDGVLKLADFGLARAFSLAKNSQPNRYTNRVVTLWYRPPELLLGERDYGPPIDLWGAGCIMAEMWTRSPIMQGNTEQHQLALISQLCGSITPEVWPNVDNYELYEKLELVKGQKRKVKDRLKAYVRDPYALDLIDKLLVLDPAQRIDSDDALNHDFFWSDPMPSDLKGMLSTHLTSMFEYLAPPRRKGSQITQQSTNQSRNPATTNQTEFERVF
T1 sequence (O60563 whole entry partner): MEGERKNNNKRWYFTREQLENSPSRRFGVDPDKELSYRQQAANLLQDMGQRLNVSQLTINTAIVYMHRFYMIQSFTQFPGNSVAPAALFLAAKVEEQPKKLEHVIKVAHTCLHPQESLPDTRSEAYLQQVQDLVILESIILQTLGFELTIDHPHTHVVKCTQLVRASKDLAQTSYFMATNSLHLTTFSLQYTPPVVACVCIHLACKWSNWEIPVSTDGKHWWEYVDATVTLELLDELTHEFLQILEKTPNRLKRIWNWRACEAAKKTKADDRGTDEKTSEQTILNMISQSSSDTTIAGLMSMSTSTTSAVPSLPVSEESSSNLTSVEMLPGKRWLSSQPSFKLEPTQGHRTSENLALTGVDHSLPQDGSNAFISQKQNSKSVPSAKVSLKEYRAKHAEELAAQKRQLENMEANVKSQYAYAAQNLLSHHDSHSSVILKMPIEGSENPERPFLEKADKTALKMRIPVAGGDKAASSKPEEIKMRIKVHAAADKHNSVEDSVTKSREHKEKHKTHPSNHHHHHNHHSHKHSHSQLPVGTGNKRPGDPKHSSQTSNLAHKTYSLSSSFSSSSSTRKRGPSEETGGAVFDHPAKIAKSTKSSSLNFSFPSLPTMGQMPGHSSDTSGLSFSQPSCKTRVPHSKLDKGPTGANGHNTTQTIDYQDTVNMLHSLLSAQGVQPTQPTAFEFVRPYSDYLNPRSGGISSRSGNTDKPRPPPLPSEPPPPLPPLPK

With `OC[C@H]1O[C@@H](n2cnc3cc(Cl)c(Cl)cc32)[C@H](O)[C@@H]1O` [DRB, 5,6-dichloro-1-β-D-ribofuranosyl-1H-benzimidazole], the “sensitivity (cell viability) of EWSR1-depleted U2OS cells” value in experiment [1] is recorded as “much more sensitive”. The “sensitivity (cell viability) of EwS cell lines compared to controls” value (“sensitivity … compared to controls” below) with EwS cell lines is recorded as “much more sensitive”.

In the case of `O=C(c1cc(Cc2n[nH]c(=O)c3ccccc23)ccc1F)N1CCN(C(=O)C2CC2)CC1` [Olaparib], the “sensitivity (cell viability) of U2OS cells expressing EWS-FLI1” value in experiment [2] is on record as “exquisite sensitivity”. Also, the “sensitivity … compared to controls” value is listed as “exquisite sensitivity” in the experiment on EwS cell lines and “acutely sensitive” in the experiment with EwS cell lines (listed as olaparib).

For `O=c1c2ccccc2sn1-c1ccccc1` [R11], the “sensitivity … compared to controls” value in the experiment on EwS cell lines is given as “significantly higher sensitivity”.

As for `CS(=O)(=O)c1ccc(-c2cnc(N)c(C(=O)Nc3ccccc3)n2)cc1` [VE-821], in experiment [1], the “sensitivity (cell viability) of EWSR1-depleted U2OS cells” value was “significantly more sensitive”. Further, the “sensitivity (cell viability) of U2OS cells expressing EWS-FLI1” value in experiment [2] is recorded as “significantly more sensitive”. In addition, in the experiment with EwS cell lines, the “sensitivity … compared to controls” value was “significantly more sensitive”.

As for `CC[C@@]1(O)C(=O)OCc2c1cc1n(c2=O)Cc2cc3ccccc3nc2-1` [camptothecin], the “sensitivity (cell viability) of EWSR1-depleted U2OS cells” value in experiment [1] is “much more sensitive”. In addition, the “sensitivity … compared to controls” value in the experiment on EwS cell lines was “much more sensitive”.

Regarding `COc1cc([C@@H]2c3cc4c(cc3[C@@H](O[C@@H]3O[C@@H]5CO[C@@H](C)O[C@H]5[C@H](O)[C@H]3O)[C@H]3COC(=O)[C@H]23)OCO4)cc(OC)c1O` [etoposide], the results for the “transcriptional activity (EU incorporation) after exposure” value with TC32 cells and in the experiment with IMR90 cells were “much delayed loss of transcription” and “decrease in EU incorporation two hours post-damage followed by recovery at 16 hours”, respectively. The “sensitivity … compared to controls” value with EwS cell lines is listed as “acutely sensitive”.

Turning to `NC(=O)NO` [hydroxyurea], the “sensitivity … compared to controls” value in the experiment on EwS cell lines is listed as “acutely sensitive”.

B1: EWSR1: purified recombinant EWSR1 protein (TP303709, Origene) (protein, UniProt Q01844 1-656, looked up)
RNA-binding protein EWS: MASTDYSTYSQAAAQQGYSAYTAQPTQGYAQTTQAYGQQSYGTYGQPTDVSYTQAQTTATYGQTAYATSYGQPPTGYTTPTAPQAYSQPVQGYGTGAYDTTTATVTTTQASYAAQSAYGTQPAYPAYGQQPAATAPTRPQDGNKPTETSQPQSSTGGYNQPSLGYGQSNYSYPQVPGSYPMQPVTAPPSYPPTSYSSTQPTSYDQSSYSQQNTYGQPSSYGQQSSYGQQSSYGQQPPTSYPPQTGSYSQAPSQYSQQSSSYGQQSSFRQDHPSSMGVYGQESGGFSGPGENRSMSGPDNRGRGRGGFDRGGMSRGGRGGGRGGMGSAGERGGFNKPGGPMDEGPDLDLGPPVDPDEDSDNSAIYVQGLNDSVTLDDLADFFKQCGVVKMNKRTGQPMIHIYLDKETGKPKGDATVSYEDPPTAKAAVEWFDGKDFQGSKLKVSLARKKPPMNSMRGGLPPREGRGMPPPLRGGPGGPGGPGGPMGRMGGRGGDRGGFPPRGPRGSRGNPSGGGNVQHRAGDWQCPNPGCGNQNFAWRTECNQCKAPKPEGFLPPPFPPPGGDRGRGGPGGMRGGRGGLMDRGGPGGMFRGGRGGDRGGFRGGRGMDRGGFGGGRRGGPGGPPGPLMEQMGGRRGGRGGPGKMDKGEHRQERRDRPY
Consider B1, for which the “inhibition of phosphorylation of RNAPII CTD by CDK9” value with CDK9/cyclin T1 is “inhibited”.

B2: FUS: purified recombinant FUS protein (TP301808, Origene) (protein, UniProt P35637 1-526, looked up)
RNA-binding protein FUS: MASNDYTQQATQSYGAYPTQPGQGYSQQSSQPYGQQSYSGYSQSTDTSGYGQSSYSSYGQSQNTGYGTQSTPQGYGSTGGYGSSQSSQSSYGQQSSYPGYGQQPAPSSTSGSYGSSSQSSSYGQPQSGSYSQQPSYGGQQQSYGQQQSYNPPQGYGQQNQYNSSSGGGGGGGGGGNYGQDQSSMSSGGGSGGGYGNQDQSGGGGSGGYGQQDRGGRGRGGSGGGGGGGGGGYNRSSGGYEPRGRGGGRGGRGGMGGSDRGGFNKFGGPRDQGSRHDSEQDNSDNNTIFVQGLGENVTIESVADYFKQIGIIKTNKKTGQPMINLYTDRETGKLKGEATVSFDDPPSAKAAIDWFDGKEFSGNPIKVSFATRRADFNRGGGNGRGGRGRGGPMGRGGYGGGGSGGGGRGGFPSGGGGGGGQQRAGDWKCPNPTCENMNFSWRNECNQCKAPKPDGPGGGPGGSHMGGNYGDDRRGGRGGYDRGGYRGRGGDRGGFRGGRGGGDRGGFGPGKMDSRGEHRQDRRERPY
As to B2, the “inhibition of phosphorylation of RNAPII CTD by CDK9” value with CDK9/cyclin T1 was “inhibited”.
